Test results from patent US11214803B2, “Modulators of YAP1 expression” (Ionis Pharmaceuticals, Inc., priority 2019, dated 2022).
Strand notation (5' to 3'): a small letter for the sugar, then the base; units joined by * are phosphorothioate-linked, units joined directly phosphodiester-linked; [ ] holds rarer units or linkages, { } end groups; capitals alone tell only the bases. k = constrained ethyl (cEt); [5mC] = 5-methylcytosine; d = 2'-deoxy (DNA)

Test system: Yap1 mRNA
Test: Antisense inhibition of human Yap1 in A-431 cells by cEt gapmers, single dose (Example 3, RTS36584)
Format: cell-based
Outline: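 Values are % untreated control: Yap1 mRNA by quantitative RT-PCR (RTS36584), normalized to total RNA by RiboGreen. Before RNA isolation, 5,000 A-431 cells per well were exposed ~48 h to 2,000 nM 16-mer cEt gapmer, delivered without transfection reagent.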

[1] = Table 26, Yap1 mRNA by 3-10-3 cEt gapmers targeting SEQ ID NO.: 1, and 2, percent of untreated control
[2] = Table 8, A-431 cells, 5,000 cells per well, free uptake, 2,000 nM, approximately 48 hours, RTS36584, normalized to RIBOGREEN, Yap1 mRNA relative to untreated control cells
[3] = Table 11, A-431 cells, 5,000 cells per well, free uptake, 2,000 nM oligonucleotide, approx. 48 hours, primer probe set RTS36584, Yap1 mRNA normalized to RIBOGREEN, percent of untreated control
[4] = Table 13, A-431 cells, 5,000 cells per well, free uptake, 2,000 nM modified oligonucleotide, approx. 48 hours, RTS36584, normalized to RIBOGREEN, Yap1 mRNA relative to untreated control cells
[5] = Table 12, A-431 cells, 5,000 cells per well, free uptake, 2,000 nM modified oligonucleotide, approx. 48 hours, RTS36584, normalized to RIBOGREEN, Yap1 mRNA relative to untreated control cells

For “1075276 (kG*kA*k[5mC]*d[5mC]*dA*dA*dT*dA*d[5mC]*dA*dA*dT*dG*kG*kG*kA; antisense) [compound 1075276]”, the “YAP1 (% UTC)” value [1] was 78 % UTC.

In the case of “958402 (antisense k[5mC]*kT*k[5mC]*dT*dT*dA*d[5mC]*dA*d[5mC]*dA*dG*d[5mC]*d[5mC]*kT*kA*kG) [Compound 958402]”, the “YAP1 (% UTC)” value [2] is reported as 28 % UTC.

For “958668 (kG*kT*kG*dA*dT*d[5mC]*dT*dG*dT*dG*dA*dG*dA*kG*kG*kT; antisense) [Compound 958668]”, the “YAP1 (% UTC)” value [3] was 2 % UTC.

For “958473 (antisense kG*kT*k[5mC]*dT*d[5mC]*d[5mC]*dT*dT*dA*dG*dA*dT*d[5mC]*k[5mC]*kT*kT) [Compound 958473]”, the “YAP1 (% UTC)” value [3] was 5 % UTC.

In the case of “958713 (antisense kT*kG*k[5mC]*dT*dA*dG*dA*dG*dG*d[5mC]*dT*dG*dT*kT*k[5mC]*k[5mC]) [Compound 958713]”, the “YAP1 (% UTC)” value [3] is reported as 55 % UTC.

With “958448 (antisense kG*k[5mC]*kG*dA*dA*dG*dG*d[5mC]*dG*dG*d[5mC]*dT*dG*k[5mC]*k[5mC]*k[5mC]) [Compound 958448]” the “YAP1 (% UTC)” value [3] was 86 % UTC.

For “958790 (antisense kG*kA*kA*dA*dA*dG*dA*d[5mC]*dG*dA*d[5mC]*dA*d[5mC]*kA*kG*kT) [Compound 958790]”, the “YAP1 (% UTC)” value [4] was 68 % UTC.

With “958438 (antisense k[5mC]*kG*k[5mC]*d[5mC]*d[5mC]*d[5mC]*dG*dG*d[5mC]*dT*d[5mC]*d[5mC]*dA*k[5mC]*kT*kG) [Compound 958438]” the “YAP1 (% UTC)” value [3] was 61 % UTC.

“958772 (antisense k[5mC]*kA*kA*d[5mC]*dA*dA*dA*d[5mC]*dA*dT*dA*dG*dT*kT*kA*k[5mC]) [Compound 958772]” was tested, and the “YAP1 (% UTC)” value (Table 10, A-431 cells, 5,000 cells per well, free uptake, 2,000 nM oligonucleotide, approx. 48 hours, primer probe set RTS36584, Yap1 mRNA normalized to RIBOGREEN, percent of untreated control) was 61 % UTC.

With “958367 (antisense k[5mC]*kT*kA*dG*d[5mC]*dT*dT*dG*dG*dT*dG*dG*d[5mC]*kA*kG*k[5mC]) [Compound 958367]” the “YAP1 (% UTC)” value [2] was 105 % UTC.

For “1074293 (antisense kG*k[5mC]*kT*dG*dT*dT*dT*d[5mC]*dA*d[5mC]*dT*dG*dG*kA*kG*k[5mC]) [compound 1074293]”, the “YAP1 (% UTC)” value (Table 35, Yap1 mRNA as percent of untreated control, 3-10-3 cEt gapmers targeting SEQ ID NO: 1 and 2, single dose) was 54 % UTC.

“958589 (kG*kT*kA*dA*dA*dG*dG*dA*dA*dG*dA*dT*d[5mC]*kT*k[5mC]*k[5mC]; antisense) [Compound 958589]” was tested, and the “YAP1 (% UTC)” value [5] was 4 % UTC.

For “1075375 (antisense k[5mC]*kT*kA*dA*dA*dT*dA*dT*d[5mC]*dA*dA*d[5mC]*dT*k[5mC]*k[5mC]*k[5mC]) [compound 1075375]”, the “YAP1 (% UTC)” value (Table 29, Yap1 mRNA as percent of untreated control, 3-10-3 cEt gapmers targeting SEQ ID NO.: 1, and 2) was 35 % UTC.

For “958444 (antisense kA*k[5mC]*kG*d[5mC]*d[5mC]*d[5mC]*d[5mC]*dG*dG*d[5mC]*dT*d[5mC]*d[5mC]*kA*k[5mC]*kG) [Compound 958444]”, the “YAP1 (% UTC)” value [5] was 97 % UTC.

In the case of “958449 (antisense k[5mC]*k[5mC]*kG*dG*dA*d[5mC]*dG*dG*d[5mC]*dG*dG*dG*d[5mC]*k[5mC]*k[5mC]*kT) [Compound 958449]”, the “YAP1 (% UTC)” value [5] is reported as 84 % UTC.

For “958710 (antisense kA*kG*kG*dG*dA*dA*d[5mC]*d[5mC]*d[5mC]*dT*dT*dG*dG*k[5mC]*kT*kA) [Compound 958710]”, the “YAP1 (% UTC)” value [4] was 77 % UTC.

With “1074412 (k[5mC]*kT*kG*dT*dG*dA*dA*dA*dG*dA*dG*dG*dT*k[5mC]*kA*kG; antisense) [compound 1074412]” the “YAP1 (% UTC)” value [1] was 55 % UTC.

In the case of “1075724 (k[5mC]*kT*kA*dT*d[5mC]*dT*dG*dT*d[5mC]*dA*dG*dT*dT*kA*kT*k[5mC]; antisense) [compound 1075724]”, the “YAP1 (% UTC)” value [1] is reported as 44 % UTC.

With “1074132 (k[5mC]*kG*kG*d[5mC]*d[5mC]*d[5mC]*d[5mC]*dG*d[5mC]*dA*dT*d[5mC]*d[5mC]*k[5mC]*k[5mC]*k[5mC]; antisense) [compound 1074132]” the “YAP1 (% UTC)” value (Table 34, Yap1 mRNA as percent of untreated control, 3-10-3 cEt gapmers targeting SEQ ID NO: 1 and 2, single dose) was 96 % UTC.

In the case of “958479 (antisense kA*kT*kG*dG*dA*dA*dA*dT*dT*dT*d[5mC]*d[5mC]*dG*kG*kT*kG) [Compound 958479]”, the “YAP1 (% UTC)” value [5] is reported as 15 % UTC.

With “958530 (kG*kA*kG*d[5mC]*dA*dA*dG*dT*d[5mC]*dT*dT*dG*dT*kA*kA*kG; antisense) [Compound 958530]” the “YAP1 (% UTC)” value [4] was 20 % UTC.
